The values below come from paper PMC10301603, “Potent and Selective Benzothiazole-Based Antimitotics with Improved Water Solubility: Design, Synthesis, and Evaluation as Novel Anticancer Agents” (Pharmaceutics, 2023).

Assay [1] concerns HT-29 cells. In words: Cell growth inhibition assay (MTT). It is filed as cell-based, human. The method, boiled down:
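Following overnight (24 h) attachment, cultures received serial compound concentrations from 10^−10 to 10^−2 M and were incubated 72 h before MTT viability measurement. Where efflux-pump sensitivity was tested, IC50 was redetermined with 10 µM verapamil present.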

Assay [2] has as its system HeLa cells. Nature of the assay: Cell growth inhibition assay (MTT). To be noted: 72 h after drug exposure. It is filed as cell-based, human. The method, boiled down: (§1)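 MTT read-out of antiproliferative activity 72 h after compound addition to attached cells grown in DMEM with 10% FBS at 37 °C, 5% CO2. IC50 derived from concentration series spanning 10^−10 to 10^−2 M, measured in triplicate and repeated three times.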

Assay [3] relates to HepG2 cells. In words: Cell growth inhibition assay (MTT). It is filed as cell-based, human. The method, boiled down:
as §1

Assay [4] concerns LNCaP cells. Nature of the assay: Cell growth inhibition assay (MTT). Particulars: 72 h after drug exposure. It is filed as cell-based, human. The method, boiled down:
as §1

The test system of assay [5] is MCF7 cells. In words: Cell growth inhibition assay (MTT). Particulars: for IC50: MTT, 72 h after drug exposure. The format is cell-based, human. The method, boiled down: as §1
The subject of assay [6] is PC-3 cells. Nature of the assay: Cell growth inhibition assay (MTT). The format is cell-based, human. The method, boiled down: as §1
Assay [7] deals with T98G cells. Nature of the assay: Cell growth inhibition assay (MTT). To be noted: 72 h after drug exposure. The format is cell-based, human. The method, boiled down: as §1
Assay [8] concerns tumor cell lines. Nature of the assay: Cell growth inhibition assay (MTT), summary statements over several cell lines. It is filed as cell-based. To be noted: glioblastoma cell lines; read-out: antiproliferative IC50. Here is the method:
Cells were plated in 96-well plates (100 µL/well) at the following concentrations: 30,000 cells/mL (HepG2, U87 MG, T98G, C6, LNCaP, PC3, and HT-29 cells) or 15,000 cells/mL (HeLa and MCF-7 cells). Previous experiments were performed to choose the optimal cell concentration (70–80% confluence) and avoid the formation of cell aggregates. Cells were incubated in complete DMEM or RPMI 1640 medium (see above) at 37 °C and 5% CO2 atmosphere for 24 h to allow for cell attachment to the plate. Then, every compound was added (10 µL/well) to a final concentration of 10 µM. Non-treated cells were used as negative controls. The antiproliferative activity of compounds was measured 72 h after the treatments using the MTT reagent (3-[4,5-dimethylthiazol-2-yl]-2,5-diphenyltetrazolium bromide), (MTT Thiazolyl Blue Tetrazolium Bromide, Sigma-Aldrich, St. Louis, MO, USA) dissolved in PBS at 5 mg/mL. Compounds showing antiproliferative effects at 10 µM were selected to determine their IC50 value. For that purpose, compounds were used at different concentrations ranging from 10^−10 to 10^−2 M. Measurements were performed in triplicate, and each experiment was repeated three times. The IC50 value was determined for every compound using Origin software (OriginLab, Washington, USA). To study the sensitivity to MDR efflux pumps of compounds, the IC50 values were determined by following the same procedure but in the presence of verapamil (final concentration of 10 µM).

In general, IC50 refers to the concentration that inhibits the measured activity by half. For `CCNC(=O)N(Cc1cccnc1)c1nc2ccc(OC)cc2s1` [Compound 8], the half-inhibitory concentration (IC50) in assay [1] (72 h after drug exposure) was found to be 208 nM; in assay [2], 85 nM; in assay [3] (72 h after drug exposure), 94 nM; in assay [4] it was 88 nM; in assay [5], 34 nM; in assay [6] (72 h after drug exposure), 161 nM. This compound also showed an IC50 in assay [7] of 52 nM.

Turning to `COc1ccc2nc(N(C=O)Cc3cccnc3)sc2c1` [Compound 14, N-(6-methoxybenzo[d]thiazol-2-yl)-N-(pyridin-3-ylmethyl)formamide], the IC50 came to 322 nM in assay [1] (Homo sapiens, HT-29, 72 h after drug exposure); 107 nM in assay [2] (Homo sapiens, HeLa); 83 nM in assay [3] (Homo sapiens, HepG2, 72 h after drug exposure); 93 nM in assay [4] (Homo sapiens, LNCaP); 15 nM in assay [5] (Homo sapiens, MCF7); 195 nM in assay [6] (Homo sapiens, PC-3, 72 h after drug exposure). The IC50 in assay [7] (Homo sapiens, T98G) was 75 nM; in assay [8] it was 37 to 75 nM. In assay [5] (HEK-293 versus MCF7), the “selectivity index against MCF7” value is on record as about 500.
